pKi: −log10 of the molar value.
How the values were obtained:
[1] = biological target: T1, human histamine H4 receptor (Homo sapiens, UniProt Q9H3N8); assay: biochemical
[2] = biological target: T1, human histamine H4 receptor; assay: Binding assay on recombinant human histamine H4 receptor (3H-histamine displacement); settings: read-out: Binding Assay Ki; repeated in the chemotaxis table
human eosinophils = assay: Inhibition of histamine-induced eosinophil shape change (GAFS); type: cell-based; settings: for effect on histamine-induced shape change: human eosinophils
Experimental: Eosinophil accumulation in sites of allergic reaction is a well-known characteristic of allergic rhinitis and asthma. […] Shape change is a cellular characteristic that precedes eosinophil chemotaxis.
Human granulocytes were isolated from human blood by a Ficoll gradient. The red blood cells were lysed with 5-10X Qiagen lysis buffer at room temperature for 5-7 min. Granulocytes were harvested and washed once with FACS buffer. The cells were resuspended at a density of 2×10^6 cells/mL in reaction buffer. […] Ten minutes later the cells were transferred to ice and fixed with 250 μL of ice-cold fixative buffer (2% formaldehyde) for 1 min.
The change in shape of eosinophils is due to cytoskeletal changes that precede chemotaxis and thus is a measure of chemotaxis.

[3] = histamine 0 μM, HR antagonist 10 μM
[4] = histamine 0.01 μM, HR antagonist 10 μM or none
[5] = histamine 0.1 μM, HR antagonist 10 μM or none
[6] = histamine 1 μM, HR antagonist 10 μM or none
[7] = histamine 10 μM, HR antagonist 10 μM or none

SMILES	pKi [1]	further results
CN1CCN(C(=O)c2nc3ccccc3[nH]2)CC1 [Example 1, (1H-Benzoimidazol-2-yl)-(4-methyl-piperazin-1-yl)-methanone]	7.49	–
CCN1CCN(C(=O)c2nc3ccccc3[nH]2)CC1 [Example 2, (1H-Benzoimidazol-2-yl)-(4-ethyl-piperazin-1-yl)-methanone]	6.31	–
CC1CN(C(=O)c2nc3ccccc3[nH]2)CCN1 (stereo not shown) [Example 3, (1H-Benzoimidazol-2-yl)-(3-methyl-piperazin-1-yl)-methanone]	6.48	–
CN1CCCN(C(=O)c2nc3ccccc3[nH]2)CC1 [Example 4, (1H-Benzoimidazol-2-yl)-(4-methyl-[1,4]diazepan-1-yl)-methanone]	5.85	–
CN1C2CCC1CC(NC(=O)c1nc3ccccc3[nH]1)C2 (stereo not shown) [Example 5, 1H-Benzoimidazole-2-carboxylic acid (8-methyl-8-aza-bicyclo[3.2.1]oct-3-yl)-amide]	7.05	–
CN1CCN(C(=O)c2nc3cc(Cl)ccc3[nH]2)CC1 [Example 6, (5-Chloro-1H-benzoimidazol-2-yl)-(4-methyl-piperazin-1-yl)-methanone]	7.60	pKi [2]: 7.60
CC1CN(C(=O)c2nc3cc(Cl)ccc3[nH]2)CCN1 (stereo not shown) [Example 8, (5-Chloro-1H-benzoimidazol-2-yl)-(3-methyl-piperazin-1-yl)-methanone]	6.52	–
CCN1CCN(C(=O)c2nc3cc(F)c(F)cc3[nH]2)CC1 [Example 10, (5,6-Difluoro-1H-benzoimidazol-2-yl)-(4-ethyl-piperazin-1-yl)-methanone]	6.21	–
CC1CN(C(=O)c2nc3cc(F)c(F)cc3[nH]2)CCN1 (stereo not shown) [Example 11, (5,6-Difluoro-1H-benzoimidazol-2-yl)-(3-methyl-piperazin-1-yl)-methanone]	6.45	–
CN1CCCN(C(=O)c2nc3cc(F)c(F)cc3[nH]2)CC1 [Example 12, (5,6-Difluoro-1H-benzoimidazol-2-yl)-(4-methyl-[1,4]diazepan-1-yl)-methanone]	6.09	–
CN1C2CCC1CC(NC(=O)c1nc3cc(F)c(F)cc3[nH]1)C2 (stereo not shown) [Example 13, 5,6-Difluoro-1H-benzoimidazole-2-carboxylic acid (8-methyl-8-aza-bicyclo[3.2.1]oct-3-yl)-amide]	6.42	–
CN1CCN(C(=O)c2nc3cc(F)c(Cl)cc3[nH]2)CC1 [Example 14, (6-Chloro-5-fluoro-1H-benzoimidazol-2-yl)-(4-methyl-piperazin-1-yl)-methanone]	7.28	–
O=C(c1nc2cc(F)c(Cl)cc2[nH]1)N1CCNCC1 [Example 15, (6-Chloro-5-fluoro-1H-benzoimidazol-2-yl)-piperazin-1-yl-methanone]	6.67	–
CN1CCCN(C(=O)c2nc3cc(F)c(Cl)cc3[nH]2)CC1 [Example 16, (6-Chloro-5-fluoro-1H-benzoimidazol-2-yl)-(4-methyl-[1,4]diazepan-1-yl)-methanone]	5.89	–
CN1C2CCC1CC(NC(=O)c1nc3cc(F)c(Cl)cc3[nH]1)C2 (stereo not shown) [Example 17, 6-Chloro-5-fluoro-1H-benzoimidazole-2-carboxylic acid (8-methyl-8-aza-bicyclo[3.2.1]oct-3-yl)-amide]	6.27	–
Cc1cc2nc(C(=O)N3CCN(C)CC3)[nH]c2cc1Cl [Example 18, (5-Chloro-6-methyl-1H-benzoimidazol-2-yl)-(4-methyl-piperazin-1-yl)-methanone]	6.65	–
Cc1cc2nc(C(=O)N3CCNCC3)[nH]c2cc1Cl [Example 19, (5-Chloro-6-methyl-1H-benzoimidazol-2-yl)-piperazin-1-yl-methanone]	6.00	–
Cc1cccc2[nH]c(C(=O)N3CCNC(C)C3)nc12 (stereo not shown) [Example 20, (4-Methyl-1H-benzoimidazol-2-yl)-(3-methyl-piperazin-1-yl)-methanone]	6.81	–
CCN1CCN(C(=O)c2nc3c(C)cccc3[nH]2)CC1 [Example 21, (4-Ethyl-piperazin-1-yl)-(4-methyl-1H-benzoimidazol-2-yl)-methanone]	6.33	–
Cc1cccc2[nH]c(C(=O)N3CCN(C)CC3)nc12 [Example 22, (4-Methyl-1H-benzoimidazol-2-yl)-(4-methyl-piperazin-1-yl)-methanone]	7.51	–
Cc1cccc2[nH]c(C(=O)N[C@H]3C[C@H]4CC[C@@H](C3)N4C)nc12 [Example 24, 4-Methyl-1H-benzoimidazole-2-carboxylic acid (8-methyl-8-aza-bicyclo[3.2.1]oct-3-yl)-amide]	6.57	–
CN(C)CCOC(c1ccccc1)c1ccccc1 [diphenhydramine]	–	Fold Change (eosinophil shape change) (human eosinophils; [3]): 1.00; Fold Change (eosinophil shape change) (human eosinophils; [4]): 1.03; Fold Change (eosinophil shape change) (human eosinophils; [5]): 1.18; Fold Change (eosinophil shape change) (human eosinophils; [6]): 1.50; Fold Change (eosinophil shape change) (human eosinophils; [7]): 1.63; effect on histamine-induced shape change (human eosinophils): did not alter the histamine-induced shape change
CNC(=C[N+](=O)[O-])NCCSCc1ccc(CN(C)C)o1 [ranatidine]	–	Fold Change (eosinophil shape change) (human eosinophils; [3]): 1.00; Fold Change (eosinophil shape change) (human eosinophils; [4]): 1.04; Fold Change (eosinophil shape change) (human eosinophils; [5]): 1.21; Fold Change (eosinophil shape change) (human eosinophils; [6]): 1.49; Fold Change (eosinophil shape change) (human eosinophils; [7]): 1.64; effect on histamine-induced shape change (human eosinophils): did not alter the histamine-induced shape change

Continued, in another order:

pKi [1]	SMILES	further results
6.87	Cc1cccc2[nH]c(C(=O)N3CCNCC3)nc12 [Example 23, (4-Methyl-1H-benzoimidazol-2-yl)-piperazin-1-yl-methanone]	–
6.28	Cc1ccc2[nH]c(C(=O)N3CCN(C)CC3)nc2c1 [Example 26, (5-Methyl-1H-benzoimidazol-2-yl)-(4-methyl-piperazin-1-yl)-methanone]	–
7.96	CN1CCN(C(=O)c2nc3cc(C(F)(F)F)ccc3[nH]2)CC1 [Example 27, (4-Methyl-piperazin-1-yl)-(5-trifluoromethyl-1H-benzoimidazol-2-yl)-methanone]	–
6.38	O=C(c1nc2cc(C(F)(F)F)ccc2[nH]1)N1CCNCC1 [Example 28, Piperazin-1-yl-(5-trifluoromethyl-1H-benzoimidazol-2-yl)-methanone]	–
7.59	CN1CCN(C(=O)c2nc3cc(F)ccc3[nH]2)CC1 [Example 29, (5-Fluoro-1H-benzoimidazol-2-yl)-(4-methyl-piperazin-1-yl)-methanone]	–
6.43	CCN1CCN(C(=O)c2nc3cc(F)ccc3[nH]2)CC1 [Example 30, (4-Ethyl-piperazin-1-yl)-(5-fluoro-1H-benzoimidazol-2-yl)-methanone]	–
7.38	O=C(c1nc2cc(F)ccc2[nH]1)N1CCNCC1 [Example 31, (5-Fluoro-1H-benzoimidazol-2-yl)-piperazin-1-yl-methanone]	–
6.34	CC1CN(C(=O)c2nc3cc(F)ccc3[nH]2)CCN1 (stereo not shown) [Example 32, (5-Fluoro-1H-benzoimidazol-2-yl)-(3-methyl-piperazin-1-yl)-methanone]	–
6.08	CN1CCN(C(=O)c2nc3cccnc3[nH]2)CC1 [Example 34, (3H-Imidazo[4,5-b]pyridin-2-yl)-(4-methyl-piperazin-1-yl)-methanone]	–
6.21	CN1CCN(C(=O)c2nc3ccccc3o2)CC1 [Example 35, Benzooxazol-2-yl-(4-methyl-piperazin-1-yl)-methanone]	–
5.92	Cc1cccc2nc(C(=O)N3CCN(C)CC3)oc12 [Example 36, (7-Methyl-benzooxazol-2-yl)-(4-methyl-piperazin-1-yl)-methanone]	–
5.89	Cc1ccc2oc(C(=O)N3CCN(C)CC3)nc2c1 [Example 37, (5-Methyl-benzooxazol-2-yl)-(4-methyl-piperazin-1-yl)-methanone]	–
5.80	Cc1cccc2oc(C(=O)N3CCN(C)CC3)nc12 [Example 38, (4-Methyl-benzooxazol-2-yl)-(4-methyl-piperazin-1-yl)-methanone]	–
6.09	CN1CCN(C(=O)c2nc3ccccc3s2)CC1 [Example 39, Benzothiazol-2-yl-(4-methyl-piperazin-1-yl)-methanone]	–
5.10	CN1CCN(C(=O)c2nc3cc(C(=O)c4ccccc4)ccc3[nH]2)CC1 [Example 40, (5-Benzoyl-1H-benzoimidazol-2-yl)-(4-methyl-piperazin-1-yl)-methanone]	–
7.24	CN1CCN(C(=O)c2nc3c(Cl)cccc3[nH]2)CC1 [Example 41, (4-Chloro-1H-benzoimidazol-2-yl)-(4-methyl-piperazin-1-yl)-methanone]	–
6.96	CN1CCN(C(=N)c2nc3cc(Cl)ccc3[nH]2)CC1 [Example 45, C-(5-Chloro-1H-benzoimidazol-2-yl)-C-(4-methyl-piperazin-1-yl)-methyleneamine]	–
7.19	CN1CCN(C(=O)c2nc3c(F)cc(F)cc3[nH]2)CC1 [Example 46, (4,6-Difluoro-1H-benzoimidazol-2-yl)-(4-methyl-piperazin-1-yl)-methanone]	–
6.80	CN1CCN(C(=O)c2nc3cc([N+](=O)[O-])ccc3[nH]2)CC1 [Example 47, (4-Methyl-piperazin-1-yl)-(5-nitro-1H-benzoimidazol-2-yl)-methanone]	–
7.64	Cc1c(F)ccc2[nH]c(C(=O)N3CCN(C)CC3)nc12 [Example 48, (5-Fluoro-4-methyl-1H-benzoimidazol-2-yl)-(4-methyl-piperazin-1-yl)-methanone]	–
7.29	CN1CCN(C(=O)c2nc3cc(Br)ccc3[nH]2)CC1 [Example 49, (5-Bromo-1H-benzoimidazol-2-yl)-(4-methyl-piperazin-1-yl)-methanone]	–
